Reference: patent publication EP0173480A2, “The antiviral use of phyllanthostatins” (priority 1984, dated 1986)
Entries after “also recorded” stand apart in the source; their conditions may differ. Read-outs that look alike come from different tables or passages of the source.

Legend:
coxsackie A21 = format: cell-based; design: ED90 Col: unit not given beside the values; details: for coxsackie A21 virus yield: ML cells
Coe = assay: Cell culture antiviral activity, agar-well zones of cytotoxicity / plaque inhibition; details: second figure of the cell, 50 pg of test compound (so in the source)
HA-1 = assay: as above; details: 50 pg of test compound (so in the source); for zone of cytotoxicity: first figure of the cell; for zone of antiviral activity (viral plaque inhibition): second figure of the cell
PR-8 = details: 50 pg of test compound (so in the source); for zone of cytotoxicity: first figure of the cell; for zone of antiviral activity (viral plaque inhibition): second figure of the cell
E.R. = details: 50 pg of test compound (so in the source); for zone of cytotoxicity: first figure of the cell; for zone of antiviral activity (viral plaque inhibition): second figure of the cell
Vacc. = details: 50 pg of test compound (so in the source); for zone of cytotoxicity: first figure of the cell; for zone of antiviral activity (viral plaque inhibition): second figure of the cell
[1] = tested on: Herpes Simplex virus type 2 (HSV-2, strain 35D); assay: Genital HSV-2 infection of female mice, intravaginal treatment, survival; format: in vivo; details: for mice survived (of 14): study of Table 3; for %S (percent survivors) / MDD (mean day of death): N 14; for protection of mice from lethal genital HSV-2 infection, summary in words: intravaginally from one hour after inoculation, 3 times daily
HSV-2 = assay: Cell culture antiviral activity, agar-well zones of cytotoxicity / plaque inhibition; details: second figure of the cell, 50 pg of test compound (so in the source)
[2] = tested on: herpes simplex virus type 2 (HSV-2, MS); assay: Inhibition of virus replication, virus yield by plaque method; format: cell-based; details: for ED90 MS: HSV-2 in Vero cells, drug concentration reducing virus titers by 90%
HSV-1 = assay: Cell culture antiviral activity, agar-well zones of cytotoxicity / plaque inhibition; details: second figure of the cell, 50 pg of test compound (so in the source)
[3] = tested on: VSV (vesicular stomatitis virus); format: cell-based; design: ED90 VSV: unit not given beside the values; details: Vero cells
[4] = tested on: coxsackie B3 virus (Nancy Strain); assay: Inhibition of virus replication, virus yield in Vero cells; format: cell-based
[5] = tested on: herpes simplex virus type 1 (HSV-1, McIntyre); assay: Inhibition of virus replication, virus yield by plaque method; format: cell-based; design: ED90 McIntyre: unit not given here; details: for ED90 McIntyre: HSV-1 in Vero cells, drug concentration reducing virus titers by 90%, unit only in b38; for HSV-1 virus yield: Vero cells
Vero cells = details: monkey
[6] = tested on: Herpes Simplex virus type 2 (HSV-2, strain 35D); assay: Genital HSV-2 infection of female mice, virus titers in vaginal secretions; format: in vivo; details: for Mean virus titer in swabs of mice which shed virus / Nv/Nt, swabs with virus/total swabs: 8.0 x 10^4 PFU;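 on Mean virus titer in swabs of mice which shed virus: titer expressed as log PFU per ml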
[7] = 8.0 x 10^3 PFU/0.1 ml, mg/ml cell empty (1 mg/ml in upper section)
[8] = 8.0 x 10^4 PFU/0.1 ml, 1 mg/ml intravaginally
[9] = day 1 after HSV-2 inoc., 0.5 mg/ml
[10] = day 1 after HSV-2 inoc., 1 mg/ml
[11] = day 2 after HSV-2 inoc., 0.5 mg/ml
[12] = day 2 after HSV-2 inoc., 1 mg/ml
[13] = day 3 after HSV-2 inoc., 0.5 mg/ml
[14] = day 3 after HSV-2 inoc., 1 mg/ml
[15] = day 4 after HSV-2 inoc., 0.5 mg/ml
[16] = day 4 after HSV-2 inoc., 1 mg/ml
[17] = day 7 after HSV-2 inoc., 0.5 mg/ml
[18] = day 7 after HSV-2 inoc., 1 mg/ml
[19] = higher drug concentrations (5 and 50 µg/ml) compared with 0.5
[20] = second study, 8.0 x 10^4 PFU in 0.1 ml, 0.5 mg/ml

COC(=O)C1CCC2C(C1)OC1(CC(OC(=O)/C=C/c3ccccc3)C(C)CO1)C21CO1 (stereo not shown) [Phyllanthocin]
coxsackie A21 virus yield (coxsackie A21; 5 µg/ml (below 5 µg per ml)): non-inhibitory; also recorded: did not reduce the yields; also recorded: not affected; also recorded: not for VSV or Coxsackie A-21 | coxsackie A21 virus yield (coxsackie A21; 50 µg/ml): reduced yields of all viruses; also recorded: reduction in titers of all viruses | ED90 Col (coxsackie A21; […], unit not given, NS - not significant): 61.7506 | zone of antiviral activity (viral plaque inhibition) (Coe): 0/0 | zone of cytotoxicity (HA-1): 0/0 | zone of antiviral activity (viral plaque inhibition) (HA-1): 0/0 | zone of cytotoxicity (PR-8): 2 (2 - 20-30 mm) | zone of antiviral activity (viral plaque inhibition) (PR-8): 0 | zone of cytotoxicity (E.R.): 0/0 | zone of antiviral activity (viral plaque inhibition) (E.R.): 0/0 | zone of cytotoxicity (Vacc.): 0 | zone of antiviral activity (viral plaque inhibition) (Vacc.): 4 | mice survived (of 14) ([1]; 8.0 x 10^3 PFU in 0.1 ml): four | %S (percent survivors) [1, 7]: 29% | MDD (mean day of death) [1, 7]: 8.5 days | mice survived (of 14) ([1]; 8.0 x 10^4 PFU in 0.1 ml): did not protect mice from lethal infection | %S (percent survivors) [1, 8]: 14% | MDD (mean day of death) [1, 8]: 8.0 days | protection of mice from lethal genital HSV-2 infection, summary in words [1]: devoid of antiviral activity | zone of antiviral activity (viral plaque inhibition) (HSV-2): 2 (2 - 20-30 mm) | ED90 MS [2]: 7.99 µg per ml | ED90 MS ([2]; 1440 min): 7.9939 µg per ml | HSV-2 yields reduced by ([2]; Vero cells, 5 µg per ml): greater than 1 log | HSV-2 virus yield ([2]; Vero cells, 5 µg/ml): reductions in yields; also recorded: inhibitory | HSV-2 virus yield ([2]; Vero cells, 50 µg/ml): reduced yields of all viruses; also recorded: reduction in titers of all viruses | zone of antiviral activity (viral plaque inhibition) (HSV-1): 3 | VSV virus yield ([3]; 5 µg/ml (below 5 µg per ml)): non-inhibitory; also recorded: not affected; also recorded: not for VSV or Coxsackie A-21 | VSV virus yield ([3]; 50 µg/ml): reduced yields of all viruses; also recorded: reduction in titers of all viruses | ED90 VSV ([3]; reduces virus yield by 90%, unit not given, NS - not significant): 8.668 | coxsackie B3 virus yield ([4]; 5 µg per ml): inhibitory for coxsackie B3 replication | ED90 McIntyre [5]: 7.1380 | ED90 McIntyre ([5]; listed as phyllanthocin): 7.14 | HSV-1 virus yield ([5]; 5 µg/ml): only modestly inhibitory; also recorded: reductions in yields | HSV-1 virus yield ([5]; 50 µg/ml): reduced yields of all viruses; also recorded: reduction in titers of all viruses | times less cytotoxic than phyllanthoside or phyllanthostatin I (Vero cells): 2-5 | ID50 Vero 72 hrs. (Vero cells; vero cells, 72 h): 5.91 mg per ml

Phyllanthostatin 3
HSV-2 virus yield ([2]; Vero cells, 50 µg/ml): slight reduction in yields | HSV-1 virus yield ([5]; 50 µg/ml): slight reduction in yields

Phyllanthostatin I
mean titers compared with controls ([6]; 0.5 mg/ml, day 4): nearly the same as that in the controls | mean virus titers less than placebo treated group ([6]; 0.5 mg/ml, days 2 and 3): about 0.7 logs | mean titer less than the placebo ([6]; 1 mg/ml, day 1): greater than 2 logs | mean virus titers lower than placebo treated controls ([6]; 1 mg/ml, days 2 through 4): about 0.5 logs | Mean virus titer in swabs of mice which shed virus [6, 9]: 2.69 log PFU/ml | Nv/Nt, swabs with virus/total swabs [6, 9]: 9/10 | Mean virus titer in swabs of mice which shed virus [6, 10]: 1.67 log PFU/ml | Nv/Nt, swabs with virus/total swabs [6, 10]: 4 | Nv/Nt, swabs with virus/total swabs ([6]; day 1 after HSV-2 inoc., 1 mg/ml, listed as Phyllanostatin I): 6/10 | Mean virus titer in swabs of mice which shed virus [6, 11]: 3.76 log PFU/ml | Nv/Nt, swabs with virus/total swabs [6, 11]: 10/10 | Mean virus titer in swabs of mice which shed virus [6, 12]: 3.83 log PFU/ml | Nv/Nt, swabs with virus/total swabs [6, 12]: 8/10 | Mean virus titer in swabs of mice which shed virus [6, 13]: 3.71 log PFU/ml | Nv/Nt, swabs with virus/total swabs [6, 13]: 10/10 | Mean virus titer in swabs of mice which shed virus [6, 14]: 3.93 log PFU/ml | Nv/Nt, swabs with virus/total swabs [6, 14]: 8/10 | Mean virus titer in swabs of mice which shed virus [6, 15]: 4.13 log PFU/ml | Nv/Nt, swabs with virus/total swabs [6, 15]: 10/10 | Mean virus titer in swabs of mice which shed virus [6, 16]: 3.63 log PFU/ml | Nv/Nt, swabs with virus/total swabs [6, 16]: 8/10 | Mean virus titer in swabs of mice which shed virus [6, 17]: (3.98) log PFU/ml | Nv/Nt, swabs with virus/total swabs [6, 17]: 1/1 | Mean virus titer in swabs of mice which shed virus [6, 18]: 3.47 log PFU/ml | Nv/Nt, swabs with virus/total swabs [6, 18]: 3/5 | coxsackie A21 virus yield (coxsackie A21; 5 µg/ml (below 5 µg per ml)): inhibitory for both viruses | coxsackie A21 virus yield (coxsackie A21; below 5 µg per ml (i.e., 0.5 or 1), study of b36): reduced titers of coxsackie A21 | coxsackie A21 virus yield (coxsackie A21; [19]): further reductions in all virus yields | zone of antiviral activity (viral plaque inhibition) (Coe): 0 | zone of cytotoxicity (HA-1): 4 | zone of antiviral activity (viral plaque inhibition) (HA-1): 0 | zone of cytotoxicity (PR-8): 2/2 (2 - 20-30 mm) | zone of antiviral activity (viral plaque inhibition) (PR-8): 2/2 (2 - 20-30 mm) | zone of cytotoxicity (E.R.): 2 (2 - 20-30 mm) | zone of antiviral activity (viral plaque inhibition) (E.R.): 4 | zone of cytotoxicity (Vacc.): 4/4 | zone of antiviral activity (viral plaque inhibition) (Vacc.): 4/4 | mice survived (of 14) ([1]; 8.0 x 10^3 PFU in 0.1 ml): 10 | %S (percent survivors) [1, 7]: 71% | MDD (mean day of death) [1, 7]: 11.8 days | mice survived (of 14) ([1]; 8.0 x 10^4 PFU in 0.1 ml): 4 | %S (percent survivors) [1, 8]: 29% | MDD (mean day of death) [1, 8]: 7.4 days | protection of mice from lethal genital HSV-2 infection, summary in words [1]: protected mice from lethal infection when the virus inoculum was reduced | MDD [1, 20]: the same as the saline and DMSO saline treated group | mice survived [1, 20]: all of the animals succumed to infection | death of mice ([1]; second study, 8.0 x 10^4 PFU in 0.1 ml, 1 mg/ml): 80% | zone of antiviral activity (viral plaque inhibition) (HSV-2): 4/4 | ED90 MS [2]: 1.64 µg per ml | ED90 MS ([2]; 1440 min): 1.164 µg per ml | HSV-2 virus yield ([2]; Vero cells, 0.5 µg/ml): most susceptible virus to inhibition | HSV-2 virus yield ([2]; Vero cells, higher drug concentrations (5 and 50 µg/ml) compared with 0.5): further reductions in all virus yields | zone of antiviral activity (viral plaque inhibition) (HSV-1): 4/4 | VSV virus yield [3, 19]: further reductions in all virus yields | coxsackie B3 virus yield ([4]; 5 µg per ml): inhibitory for both viruses | coxsackie B3 virus yield ([4]; below 5 µg per ml (i.e., 0.5 or 1)): unaffected | ED90 McIntyre ([5]; listed as Phyllanthostatin): 2.3743 | ED90 McIntyre ([5]; listed as phyllanthostatin I): 2.37 | HSV-1 virus yield [5, 19]: further reductions in all virus yields
